Laboratory results as given in patent US10208007B2, “Use of strigolactones and strigolactone analogs for treating proliferative conditions” (The State of Israel, Ministry of Agriculture & Rural …, priority 2011, dated 2019).
Values belong to the compound of their own block, whether it stands above or below them.

Columns and labels:
P38 = assay: Immunoblot of HSP27 phosphorylation with P38 inhibitor; format: cell-based, human; settings: MDA-231 cells, 2 μM and 10 μM, 1 hour pretreatment
U20S = assay: XTT viability assay; format: cell-based, human; settings: 3 days
Procedure: (§1) Viability was assayed after 3 days (XTT, ATCC). IC50 concentrations are indicated (Table 3 above).

SW480 = assay: XTT viability assay; format: cell-based, human; settings: SW480, 3 days
Procedure: as §1

MDA-MB-436 = assay: XTT viability assay; format: cell-based, human; settings: MDA-MB-436, 3 days
Procedure: as §1

PC3 = assay: XTT viability assay; format: cell-based, human; settings: PC3, 3 days
Procedure: as §1

HT-29 = assay: XTT viability assay; format: cell-based, human; settings: HT-29, 3 days
Procedure: as §1

K562 = assay: XTT viability assay; format: cell-based, human; settings: K562, 3 days
Procedure: as §1

LNCaP = assay: XTT viability assay; format: cell-based, human; settings: 3 days
Procedure: as §1

MCF-7 = assay: XTT viability assay; format: cell-based, human; settings: MCF-7, 3 days
Procedure: as §1

HCT116 = assay: XTT viability assay; format: cell-based, human; settings: HCT116, 3 days
Procedure: as §1

T47D = assay: XTT viability assay; format: cell-based, human; settings: 3 days
Procedure: as §1

MDA-MB-231 = assay: XTT viability assay; format: cell-based, human; settings: MDA-MB-231, 3 days
Procedure: as §1

DU145 = assay: XTT viability assay; format: cell-based, human; settings: DU145, 3 days
Procedure: as §1

MCF-7 mammospheres [1] = assay: cells; format: cell-based, human; settings: for Mammosphere numbers (>100 μM), percentage of vehicle treated control: 5 days
Procedure: (§2) Given the similar effects the other strigolactone analogs had on breast cancer cell line growth compared to GR-24, we anticipated that the strigolactone analogs would also have similar effects on MCF-7 primary mammosphere formation (FIG. 10): MCF-7 cells were seeded in MEBM media into low attachment, 96 well plates in duplicate at 3000 cells per well. The same day the indicated doses of strigolactone analogs were added. After 7 days representative images were taken. […] Like GR-24, the doses required to inhibit mammosphere formation are lower than that required to inhibit proliferation in monolayer cultures (5 fold lower; ST-362 and MEB-55, 3 fold lower; ST-357). To determine if the sensitivity to strigolactone analogs treatments was specific to mammosphere formation or whether it extended to the integrity and survival of mature mammospheres, MCF-7 mammospheres were grown in the absence of strigolactone analogs and after 7 days (or once mammospheres had reached a mean diameter of over […]), strigolactone analogs were added to the growth media (FIG. 10) at the indicated doses. MCF-7 cells were seeded in MEBM media into low attachment, 96 well plates in duplicate at 3000 cells per well and primary mammospheres left to grow for 7 days. At which time the indicated doses of strigolactone analogs were added to the media. FIG. 11A is a representative image of mammospheres treated with 5 ppm concentrations, showing dissociation after 2 days of exposure to strigolactone analogs. […] Following […] treatment, mammospheres were monitored visually after 24 and 48 hours. No changes were observed following 24 hours of strigolactone analogs treatment. […] At 5 ppm concentrations EG-5, EG-9C, ST-357, ST-362 and MEB-55 reduce mammosphere numbers from 86.7+6.8 (vehicle control) to 23+5, 38+6.2, 6+2, 8.3+3.5 and 9.3+1.5%, respectively. At 2.5 ppm concentrations, mammosphere numbers were reduced to 35+6.9 (EG-5), 52+12.3 (EG-9C), 22+8.5 (ST-357), 6+1.7 (ST-362) and 20.7+8.6 (MEB-55). […] XTT viability assays were also carried out on dissociated mammospheres. At concentrations of 5 ppm, EG-5, ST-362 and MEB-55 reduced viability to 3.7+0.5, 25.5+8.8 and 4.6+1.1% respectively.

MCF10A = settings: 3 days
Procedure: Results are presented as Average±SD of replicate analyses and are either representative of, or inclusive of at least two independent experiments. Statistical analyses were performed using student's t-test (2-tailed, paired) versus vehicle controls and are regarded as being significant when P<0.05(*). Higher powers (p<0.01, p<0.001) are also employed and indicated in each figure legend. IC50 doses for strigolactone analogs were calculated by interpolation of the sigmoidal dose response curves (Graphpad Prism 4.0 software). Briefly, linear regression was performed between relevant y-axis data points and interpolation calculated for x-axis unknowns.
Cells were seeded into a 96 well plates at 1500 cells per well (MCF-10, PC3, DU145, MDA-MB-231, MDA-MB-436, HT-29, SW480), 1000 cells per well (K562) or 4000 cells per well (MCF-7, HCT116) in triplicate in normal growing media (with the exception of K562, a non-adherent leukemic cell line which was seeded in phenol-free DMEM supplemented with 10% charcoal-stripped FBS). The following day media was replaced with phenol-free DMEM supplemented with 10% charcoal stripped FBS and the indicated final concentrations of strigolactone analog or vehicle (acetone) alone. Cells were incubated for 3 days, at which time XTT (2,3,-bis(2-methoxy-4-nitro-5-sulfophenyl)-5-[(phenylamino)-carbonyl]-2H-tetrazolium inner salt) reduction was used to quantify viability according to manufacturer's instruction (ATCC). Cells were incubated with XTT reagent for 2-3 hours at 37° C. in a humidified 5% CO2-95% air atmosphere. Absorbance was recorded by a photometer [sequence]luor Plus, Tecan (Salzburg, Austria) at 450 nm with 750 nm of reference wavelength. Cell survival was estimated from the equation: % cell survival=100×(At−Ac), where At and Ac are the absorbencies (450 nm) of the XTT colorimetric reaction (ATCC) in treated and control cultures respectively minus non-specific absorption measured at 750 nm. Absorbance of medium alone was also deducted from specific readings.
MCF-10A cells were included as an example of a non-tumorigenic line. XTT viability assays were carried out in the presence of the indicated doses of strigolactone analogs following 3 days of treatment. Resulting differences in absorbance readings following strigolactone analogs treatment reflect changes in proliferation and cell survival (FIG. 7A-C): Cells were seeded into 96 well plates in normal growing media. The following day media was replaced with phenol-free DMEM supplemented with 10% charcoal-stripped serum and the indicated doses of strigolactone analog or vehicle (cont.) alone. Viability was assayed after 3 days (XTT, ATCC).

HCT116 cells = assay: Annexin V / PI staining; format: cell-based, human; settings: 48 hours, from 3.6%
Procedure: Cells were cultured for 48 hours under the same conditions as those used for the DNA content/cell cycle analysis. All the cells were collected and resuspended in 100 μl 1× Annexin V Binding Buffer (BD Biosciences, San Jose, Calif., USA). 2 μl FITC-Annexin V (BD Biosciences) was added and incubated for 10 min in the dark (room temperature). Cells were then stained with PI (Sigma, Saint Louis, Mo., USA) to a final concentration of 5 μg/ml and the cells were incubated at room temperature for 15 min in the dark. Then, 400 μl of Annexin V binding buffer were added and flow cytometry was performed using a BD FACSCalibur flow cytometer. Cells were considered to be apoptotic if they were Annexin V+/PI− (early apoptotic) and Annexin V+/PI+ (late apoptotic). Each analysis was performed using at least 20,000 events.
Chromosome condensation at mitosis is accompanied by phosphorylation of histone H3. Accordingly, in order to determine if cells were arresting at G2 or M phase, HCT116 cells were analyzed for pS10 Histone H3 following strigolactone analogs exposure. […] To further quantify whether the growth inhibition observed in-vitro following strigolactone treatment was due in part to apoptosis, HCT116 cells were dual stained with Annexin V and PI (Prodidium Iodide). Annexin V staining indicate the inversion of the inner leaflet of the plasma membrane an early event of apoptosis. Late apoptosis is characterized by loss of membrane integrity and cells become permeable to PI. […] Cells were incubated for 48 hours and then co-stained with annexin-V and PI (FIG. 12F). Following treatment with 10 ppm and 15 ppm MEB-55, the percentage of late apoptotic cell increased from 3.6% to 62% and 85% respectively (FIG. 12F, lower panel). […] Dual Annexin V/PI staining analysis was also carried out on two other colon cancer cell lines, (SW480, HT29) following strigolactone treatment. Increased apoptosis was also observed in these lines following MEB-55 treatment in a dose dependent manner (FIG. 12D).

MCF-7 mammospheres [2] = assay: Mammosphere formation; format: cell-based, human; settings: 5 ppm and above
Procedure: Adherent cells were gently trypsinized, (0.05% trypsin/EDTA) washed twice in PBS and filtered through a […] cell sieve to obtain a single cell suspensions. Cells were diluted to a concentration of 10,000 cell/ml in serum-free phenol-red free MEBM (MEGM Bulletkit, Lonza) supplemented with 5 μg/ml bovine insulin, 20 ng/ml recombinant epidermal growth factor, 20 ng/ml basic fibroblast growth factor (Gibco), 1×B27 supplement, 0.5 μg/ml hydrocortisone (MEGM Bulletkit, Lonza). For MDA-MB-231 mammosphere cultures serum-free phenol red-free CnT-27 medium with growth additives (CellnTEC Advanced cell systems, Bern, Switzerland) was used as previously described. 0.1 ml was seeded per well of a Ultralow attachment 96 well plates. The following day the indicated doses of GR-24 (ppm) or vehicle alone (0.6% acetone f/c) were added. Media was replenished every 3-4 days. Self-renewal capacity of the mammospheres was determined by re-plating and producing further generations of mammospheres. Secondary mammospheres were cultivated by dissociation (trypsinization with gently vortexing) of 10-14 day old primary mammospheres. Single cell suspensions were obtained as described above.
as §2

[3] = system: cancer derived cell lines; assay: XTT viability assay, all cell lines tested; format: cell-based, human; settings: span over the cell lines
Procedure: MCF-10A cells were used as non-tumorigenic line and various cell lines derived from other types of solid tumors were compiled including colon (HCT116, HT29, SW480), prostate (PC3, DU145, LNCaP), lung (A549), osteosarcoma (U20S) and Melanoma (T11) cell lines. A non-adherent leukemic cancer cell line, K562, was also included to further diversify the cohort (FIG. 7).
as §1

MDA-231 cells = assay: Combination with cisplatin, Combination Index (Chou and Talalay); format: cell-based, human; settings: cisplatin line of Table 8
Procedure: To determine if these concentrations of ST-362 can enhance the efficacy of low doses of cisplatin, MDA-231 cells were treated with varying concentrations of cisplatin in the presence of ST-362 IC50 and IC20 concentrations. The combination of ST-362 with low doses of cisplatin ranging for 0.01 to 0.1 μM produced a greater effect than each of the drugs alone (FIG. 20).

Compound: C[S+]([O-])c1ccc(-c2nc(-c3ccncc3)c(-c3ccc(F)cc3)[nH]2)cc1 (stereo not shown) [SB203580]
HSP27 phosphorylation induced by ST-362 and MEB-55 (P38): sufficient to inhibit HSP27 phosphorylation

IC50 at 72 h (SW480): >15 ppm
IC50 at 72 h (MDA-MB-436): >10 ppm
IC50 at 72 h (PC3): >15 ppm
IC50 at 72 h (HT-29): >15 ppm
IC50 at 72 h (K562): >15 ppm
IC50 at 72 h (LNCaP): >20 ppm
IC50 at 72 h (MCF-7): 17.3 ppm
IC50 at 72 h (HCT116): >15 ppm
IC50 at 72 h (T47D): >10 ppm
IC50 at 72 h (MDA-MB-231): >10 ppm
IC50 at 72 h (DU145): 15 ppm
IC50 concentration over all cell lines tested [3]: 10-15 ppm
Compound: CC1=CC(O/C=C2\Cc3c(n(C)c4ccc(-c5ccc(N(C)C)cc5)cc34)C2=O)OC1=O (racemic) [EG-9c, (±) (2E)-4-methyl-2-(4-methyl-5-oxo-2,5-dihydrofuran-2-yloxymethylene)-7-[(4-dimethylamino)-phenyl]-1,4-dihydro-2H-cyclopenta[b]indol-3-one]
IC50 at 72 h (U20S): 4.5 ppm
Mammosphere morphology (MCF-7 mammospheres [1]; 2.5-5 ppm, after 48 hours): less dramatic morphological change
Mammosphere numbers (>100 μM), percentage of vehicle treated control (MCF-7 mammospheres [1]; 2.5 ppm): 52+12.3%
Mammosphere numbers (>100 μM), percentage of vehicle treated control (MCF-7 mammospheres [1]; 5 ppm, vehicle control 86.7+6.8): 38+6.2%
IC50 at 72 h (MCF10A): >15 ppm
Percentage of late apoptotic cells (Annexin V+/PI+) (HCT116 cells; 10 ppm): 12.5%
Percentage of late apoptotic cells (Annexin V+/PI+) (HCT116 cells; 15 ppm): 43.3%
Mammosphere formation (MCF-7 mammospheres [2]): completely block mammosphere formation

Compound: N.N.[Cl][Pt][Cl] [Cisplatin, cisplatin]
CI (MDA-231 cells): 0.8
